Results published in US20050282833A1, “Pharmacological treatment of psoriasis” (priority 2002, published 2005).

How the values were obtained:
[1] = system: patients with psoriatic lesions / psoriatic arthritis; settings: cited from earlier work
[2] = system: human herpesvirus (HHV-6); settings: ranking among herpes viruses; cited from earlier work
[3] = system: cytomegalovirus (CMV); settings: ranking among herpes viruses; cited from earlier work
[4] = system: patients with psoriasis; settings: cited from earlier work
[5] = system: pustular psoriasis; settings: in vivo; cited from earlier work
[6] = system: patients with psoriasis; settings: 10 week trial, cited from earlier work
[7] = system: patient with a history of plaque psoriasis; experiment: Case study 1: valacyclovir treatment of a plaque psoriasis patient; type: in vivo, human
Description: A patient with a history of plaque psoriasis over the last several years was diagnosed by their physician. Patient was treated with valacyclovir tablets at 500 mg taken 2 times a day for 20 days.

[8] = system: patient with a history of reoccurring plaque psoriasis; experiment: Case study 2: Valtrex (valacyclovir) treatment of a plaque psoriasis patient; type: in vivo, human; settings: tablets 500 mg 3 times a day for several weeks, then 1.0 gram 3 times a day for several weeks; person
Description: A person with a history of reoccurring plaque psoriasis over the last 30 years, as diagnosed by their physician, began treatment with […] (valacyclovir) tablets at 500 mg taken 3 times a day for several weeks. Dosage of […] increased to 1.0 gram taken 3 times a day for several weeks. Both the psoriatic lesions and other symptoms associated with psoriasis improved and cleared to 75-80% recovery.

[9] = system: psoriatic lesions of patients; settings: once daily over 24 days; cited from earlier work
[10] = system: patients with plaque psoriasis; settings: after 8 weeks of therapy; cited from earlier work

Molecule: etanercept
- mean improvement of psoriatic lesions ([1]; 12 weeks): 46%
- response to treatment in patients diagnosed with psoriatic arthritis ([1]; psoriatic arthritis): 73%

Molecule: Nc1nc2c(ncn2COCCO)c(=O)[nH]1 [acyclovir]
- activity against virus [2]: least active
- activity against virus [3]: least active

Molecule: basiliximab
- long-lasting clearing of lesions after last treatment ([4]; one patient with acute exacerbating psoriasis): more than 10 weeks
- improvement of lesions ([4]; second patient with stable chronic plaque psoriasis): did not show improvement

Molecule: infliximab: monoclonal antibody directed against TNF-α
- treating and sustaining clearing of pustular psoriasis [5]: highly effective

Molecule: hu1124: anti-CD11a-antibody
- patients with headaches, chills, and fever [6]: over half of the patients
- improvement of psoriasis ([6]; high dose group): only moderate improvement

Molecule: CC(C)[C@H](N)C(=O)OCCOCn1cnc2c(=O)[nH]c(N)nc21 [valacyclovir]
- reoccurrence of the psoriatic symptoms ([7]; since treatment ended): No reoccurrence
- recovery from the psoriasis ([7]; tablets 500 mg 2 times a day for 20 days, person, plaque psoriasis): complete recovery
- recovery (psoriatic lesions and other symptoms improved and cleared) [8]: 75-80%

B1: IL-10: cytokine, inhibitor of Th1-type cell priming and Th2-type mediator (protein, UniProt P22301 19-178, looked up)
Interleukin-10: SPGQGTQSENSCTHFPGNLPNMLRDLRDAFSRVKTFFQMKDQLDNLLLKESLLEDFKGYLGCQALSEMIQFYLEEVMPQAENQDPDIKAHVNSLGENLKTLRLRLRRCHRFLPCENKSKAVEQVKNAFNKLQEKGIYKAMSEFDIFINYIEAYMTMKIRN
- improvement to psoriatic lesions [9]: some improvement

B2: daclizumab: monoclonal antibody masking the cellular receptor CD25 for IL-2 (antibody, chains of the INN, looked up, V domains shown)
VH: QVQLVQSGAEVKKPGSSVKVSCKASGYTFTSYRMHWVRQAPGQGLEWIGYINPSTGYTEYNQKFKDKATITADESTNTAYMELSSLRSEDTAVYYCARGGGVFDYWGQGTLVTVSS
VL: DIQMTQSPSTLSASVGDRVTITCSASSSISYMHWYQQKPGKAPKLLIYTTSNLASGVPARFSGSGSGTEFTLTISSLQPDDFATYYCHQRSTYPLTFGQGTKVEVK
- patients experiencing a reduction in severity of plaque psoriasis [10]: 30%
